Experimental data as given in patent US10670605B2, “Cysteine reactive probes and uses thereof” (The Scripps Research Institute, priority 2015, dated 2020).
Values belong to the compound of their own block, whether it stands above or below them.

What was measured:
Assay in all cases: Competitive isoTOP-ABPP in situ (fragment-treated cells)
Type in all cases: cell-based
[1] = target: T1, cysteines in MDA-MB-231 and Ramos cells (Homo sapiens, UniProt Q96F86)
T1 sequence (Q96F86 1-508): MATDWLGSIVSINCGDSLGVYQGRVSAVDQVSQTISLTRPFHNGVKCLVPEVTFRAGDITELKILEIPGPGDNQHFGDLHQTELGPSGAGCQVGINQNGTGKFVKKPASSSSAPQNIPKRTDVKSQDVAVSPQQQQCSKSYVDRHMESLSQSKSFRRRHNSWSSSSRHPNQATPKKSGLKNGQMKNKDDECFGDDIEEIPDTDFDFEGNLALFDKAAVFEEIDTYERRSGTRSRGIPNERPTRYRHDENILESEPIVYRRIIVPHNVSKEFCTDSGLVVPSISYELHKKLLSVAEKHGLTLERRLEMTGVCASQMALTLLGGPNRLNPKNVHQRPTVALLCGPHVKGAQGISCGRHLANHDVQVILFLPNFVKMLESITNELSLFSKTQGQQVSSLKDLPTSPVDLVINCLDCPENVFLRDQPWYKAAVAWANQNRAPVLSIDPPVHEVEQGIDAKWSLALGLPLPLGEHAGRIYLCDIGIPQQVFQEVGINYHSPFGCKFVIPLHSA

[2] = target: T2, cysteines in MDA-MB-231 and Ramos cells (Homo sapiens, UniProt Q86UY8)
T2 sequence (Q86UY8 1-548): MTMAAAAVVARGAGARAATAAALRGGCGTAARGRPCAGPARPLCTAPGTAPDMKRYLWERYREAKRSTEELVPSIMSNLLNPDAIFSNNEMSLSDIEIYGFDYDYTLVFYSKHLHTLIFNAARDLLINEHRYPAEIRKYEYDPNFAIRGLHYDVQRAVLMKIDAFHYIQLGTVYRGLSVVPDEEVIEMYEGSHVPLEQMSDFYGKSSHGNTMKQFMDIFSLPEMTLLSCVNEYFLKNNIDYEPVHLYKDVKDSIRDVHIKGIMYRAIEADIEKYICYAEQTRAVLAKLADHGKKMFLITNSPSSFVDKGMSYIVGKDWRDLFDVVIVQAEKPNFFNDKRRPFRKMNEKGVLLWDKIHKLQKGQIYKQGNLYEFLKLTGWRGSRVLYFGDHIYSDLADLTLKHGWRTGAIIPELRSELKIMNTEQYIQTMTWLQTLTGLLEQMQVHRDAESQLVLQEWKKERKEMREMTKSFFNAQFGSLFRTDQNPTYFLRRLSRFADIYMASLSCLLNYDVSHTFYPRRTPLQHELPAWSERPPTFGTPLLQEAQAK

[3] = target: T3, cysteines in MDA-MB-231 and Ramos cells (Homo sapiens, UniProt Q8N1F7); conditions: 200 μM, insitu
T3 sequence (Q8N1F7 1-819): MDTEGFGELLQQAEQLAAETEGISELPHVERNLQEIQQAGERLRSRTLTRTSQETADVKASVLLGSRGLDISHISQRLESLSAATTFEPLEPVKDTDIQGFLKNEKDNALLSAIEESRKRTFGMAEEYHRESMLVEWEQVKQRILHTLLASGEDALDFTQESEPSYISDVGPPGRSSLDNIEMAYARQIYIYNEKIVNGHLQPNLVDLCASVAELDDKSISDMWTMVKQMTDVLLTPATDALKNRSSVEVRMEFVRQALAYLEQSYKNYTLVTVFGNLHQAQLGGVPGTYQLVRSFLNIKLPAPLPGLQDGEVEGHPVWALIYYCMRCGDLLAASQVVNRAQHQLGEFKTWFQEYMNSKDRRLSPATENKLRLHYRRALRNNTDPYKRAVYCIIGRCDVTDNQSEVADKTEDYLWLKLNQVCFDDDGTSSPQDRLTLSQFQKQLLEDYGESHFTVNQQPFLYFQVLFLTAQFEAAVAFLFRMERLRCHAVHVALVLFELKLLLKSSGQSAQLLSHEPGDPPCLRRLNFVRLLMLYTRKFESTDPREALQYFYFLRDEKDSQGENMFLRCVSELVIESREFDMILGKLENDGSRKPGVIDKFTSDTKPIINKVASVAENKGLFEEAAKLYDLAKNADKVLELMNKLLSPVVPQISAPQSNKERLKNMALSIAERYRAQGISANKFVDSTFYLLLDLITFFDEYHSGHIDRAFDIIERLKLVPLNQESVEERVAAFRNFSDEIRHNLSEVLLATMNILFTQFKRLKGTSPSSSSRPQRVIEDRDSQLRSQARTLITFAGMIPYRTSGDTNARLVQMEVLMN

Structure (SMILES): Cn1cc(S(=O)(=O)N2CCOCC2)cc1C(=O)NC(=O)CCl [compound 11]
- isoTOP-ABPP ratio Q96F86_C413 ([1]; 100 μM in situ 231): 20.0
- isoTOP-ABPP ratio Q86UY8_C276 ([2]; 100 μM in situ 231): 1.4

Structure (SMILES): O=C(CCl)NC(=O)NC12CC3CC(CC(C3)C1)C2 [compound 12]
- isoTOP-ABPP ratio Q86UY8_C276 ([2]; 200 μM, insitu, 231): 20.0
- isoTOP-ABPP ratio Q8N1F7_C522 [3]; 231: 20.0

Structure (SMILES): O=C(CCl)NC12CC3CC(CC(C3)C1)C2 [compound 21]
- isoTOP-ABPP ratio Q96F86_C413 ([1]; 200 μM, insitu, 231): 0.8
- isoTOP-ABPP ratio Q86UY8_C276 ([2]; 200 μM, insitu, 231): 1.8

Structure (SMILES): CC(C)CCOCCNC(=O)CCl [compound 27]
- isoTOP-ABPP ratio Q96F86_C413 ([1]; 200 μM, insitu, 231): 0.7
- isoTOP-ABPP ratio Q86UY8_C276 ([2]; 200 μM, insitu, 231): 1.7

Structure (SMILES): O=C(CCl)N1CCN(CC(=O)N2CCOCC2)CC1 [compound 29]
- isoTOP-ABPP ratio Q96F86_C413 ([1]; 200 μM, insitu, ramos): 1.9
- isoTOP-ABPP ratio Q8N1F7_C522 ([3]; ramos): 1.7

Structure (SMILES): C=CC(=O)N(Cc1cccnc1)c1cc(C(F)(F)F)cc(C(F)(F)F)c1 [compound 31]
- isoTOP-ABPP ratio Q96F86_C413 ([1]; 200 μM, insitu, ramos): 1.3
- isoTOP-ABPP ratio Q8N1F7_C522 ([3]; ramos): 3.6

Structure (SMILES): C=CC(=O)Nc1cc(F)c(N2CCN(C(=O)OC(C)(C)C)CC2)c(F)c1 [compound 38]
- isoTOP-ABPP ratio Q8N1F7_C522 [3]; 231: 1.7

Next, values leading:

- isoTOP-ABPP reactivity Q96F86_C413 EDC3 ([1]; 200 μM, insitu, 231): 20.0
- isoTOP-ABPP reactivity Q86UY8_C276 NT5DC3 ([2]; 200 μM, insitu, 231): 3.8
Structure (SMILES): COc1ccc2c(c1)CCCN2C(=O)CCl [compound 2]

- isoTOP-ABPP reactivity Q96F86_C413 EDC3 ([1]; 100 μM in situ 231): 20.0
Structure (SMILES): COc1ccc(C2CC(c3cccs3)=NN2C(=O)CCl)cc1 (stereo not shown) [compound 4]

- isoTOP-ABPP reactivity Q8N1F7_0522 NUP93 [3]; 231: 20.0
Structure (SMILES): COc1cc2c(cc1OC)CN(C(=O)CCl)CC2 [compound 8]

- isoTOP-ABPP ratio Q96F86_C413 ([1]; 200 μM, insitu, 231): 20.0
- isoTOP-ABPP ratio Q96F86_C413 ([1]; 200 μM, insitu, ramos): 20.0
- isoTOP-ABPP ratio Q86UY8_C276 ([2]; 200 μM, insitu, 231): 5.8
Structure (SMILES): O=C(CCl)N1CCN(S(=O)(=O)c2ccccc2F)CC1 [compound 10]

- isoTOP-ABPP ratio Q96F86_C413 ([1]; 200 μM, insitu, 231): 1.6
- isoTOP-ABPP ratio Q96F86_C413 ([1]; 200 μM, insitu, ramos): 2.0
- isoTOP-ABPP ratio Q86UY8_C276 ([2]; 200 μM, insitu, 231): 1.5
- isoTOP-ABPP ratio Q8N1F7_C522 ([3]; ramos): 2.2
Structure (SMILES): O=C(CCl)NCCc1c[nH]c2ccccc12 [compound 13]

- isoTOP-ABPP ratio Q86UY8_C276 ([2]; 200 μM, insitu, 231): 1.7
- isoTOP-ABPP ratio Q8N1F7_C522 [3]; 231: 0.8
Structure (SMILES): Cc1ccc(C=C(C#N)C(=O)NCCN2CCOCC2)cc1 [compound 41]

- isoTOP-ABPP ratio Q96F86_C413 ([1]; 200 μM, insitu, 231): 20.0
- isoTOP-ABPP ratio Q86UY8_C276 ([2]; 200 μM, insitu, 231): 2.1
- isoTOP-ABPP ratio Q8N1F7_C522 [3]; 231: 20.0
Structure (SMILES): CC1CCc2ccccc2N1C(=O)CCl (stereo not shown) [compound 45]

- isoTOP-ABPP ratio Q96F86_C413 ([1]; 200 μM, insitu, 231): 20.0
- isoTOP-ABPP ratio Q86UY8_C276 ([2]; 200 μM, insitu, 231): 1.2
Structure (SMILES): O=C(CCl)Nc1cccc2ncccc12 [compound 51]
